Measurements reported in patent US12364752B2, “Methods of enhancing immunogenicity of poorly immunogenic antigen-specific vaccines using oral yeast beta-glucans” (priority 2018, dated 2025).

Legend:
[1] = Livingston et al. 1994; cited from earlier work
neuroblastoma = assay: Phase I trial of GD2/GD3 bivalent vaccine with oral beta-glucan; settings: at 150 μg/m^2 s.c. with bivalent vaccine
Experimental: Patients with neuroblastoma in ≥2nd complete/very good partial remission received vaccine subcutaneously (at weeks 1, 2, 3, 8, 20, 32 and 52). The bivalent vaccine contained 30 μg each of GD2 and GD3 stabilized as lactones and conjugated to the immunologic carrier protein keyhole limpet hemocyanin (KLH); and OPT-821, which was dose escalated as 50, 75, 100, and 150 μg/m^2 per s.c. injection. Oral beta-glucan administration (40 mg/kg/day, 14 days on/14 days off x 12 cycles) was started at week 6 (FIG. 14).

Ramos tumor cells = assay: Ramos xenografts in SCID mice, Rituxan plus oral botanical adjuvants; format: in vivo; settings: Rituxan alone at 5 μg dose
Experimental: SCID mice (Jackson Lab, Bar Harbor ME) were first implanted subcutaneously in the flank area with Ramos tumor cells (a human lymphoma cell line; Pagel et al., Blood 108:328-36 (2006)) freshly harvested from culture and suspended in 100 μl matrigel (BD Biosciences, Billerica MA). When small palpable tumors started to appear (6-8 mm size), mice were randomly separated into treatment groups of 5 mice each. Mice were then given either oral botanical adjuvant, intravenous Rituxan mAb, or oral botanical adjuvant plus Rituxan mAb for 3 weeks. MAb was given twice a week through the tail vein. 2 mg of the tested botanical adjuvant (20 mg/ml solution or suspension in LPS-free water) was given by intragastric injection for 5 times a week. Tumor sizes (length and width) were measured twice a week with calipers. Mice were sacrificed when tumors were larger than 20 mm in length. For each botanical adjuvant, two endpoints were obtained: (1) positive anti-tumor effect [defined as statistically different from control group (treated with antibody alone)] and (2) anti-tumor index defined as (Mean tumor growth rate in mice treated with antibody alone)/(Mean tumor growth rate in mice treated with botanical adjuvant+antibody).

| Substance | maximal tolerated dose [1] | dose-limiting toxicity (neuroblastoma) | tumor growth suppressed (Ramos tumor cells) |
| --- | --- | --- | --- |
| QS21 | 20 µg | no dose-limiting toxicity |  |
| Rituxan: rituximab mAb |  |  | 30% |
